Counter-ions that a name gives are not always drawn. Like-named read-outs stand apart in the source and are kept apart here. One block for each compound: values may come before it.
Legend:
Assay type in all cases: physicochemical
[1] = Solubility of polymorphs (aqueous intrinsic / aqueous equilibrium solubility)
[2] = Hygroscopicity / water uptake and loss at relative humidity (VTI)
[3] = Thermal water loss and degradation (TGA/DTA, DSC, fusion microscopy)
[4] = Ambient polymorph screen with wet solvents (slurry conversion, relative form stability); details: for Polymorph Isolated: starting Form I, ambient

Aqueous Equilibrium ([1]; aqueous): 395 mg/mL
Aqueous Intrinsic Solubility ([1]; aqueous, intrinsic): < 329 mg/mL
solubility ([1]; medium not stated): 390-400 milligrams per milliliter
VTI (% H2 O absorbed) [2]: 0.4 % wt.
TGA/DTA degradation temperature [3]: 178 °C
Fusion Microscopy water loss (in words) ([3]; fusion microscopy): Sharp water loss
Fusion Microscopy water loss temperature ([3]; fusion microscopy): ~ 100 °C
SMILES: COc1ccc(C(C)C)cc1CN[C@H]1C2CCN(CC2)[C@H]1C(c1ccccc1)c1ccccc1 [Form II, (2-Benzhydryl-1-azo-bicyclo 2,2,2oct-3-yl)-(5-isoproyl-2-methoxybenzyl)-amine]
relative stability of the polymorph ([4]; compared with Form I): lower energy, more stable form than Form I

hygroscopicity (in words) [2]: hygroscopic
hygroscopicity (humidity at which hygroscopic and forms dihydrates) ([2]; about 52% humidity or greater): ≥ 52%
SMILES: COc1ccc(C(C)C)cc1CN[C@H]1C2CCN(CC2)[C@H]1C(c1ccccc1)c1ccccc1 [anhydrous dihydrochloride, anhydrous dihydrochloride of (2-Benzhydryl-1-azo-bicyclo 2,2,2oct-3-yl)-(5-isoproyl-2-methoxybenzyl)-amine]

Aqueous Equilibrium ([1]; aqueous): > 1155 mg/mL
solubility in wet THF (in words) ([1]; slurried in THF with >5% H2 O): solubility increases dramatically
solubility ([1]; water, aqueous, intrinsic, read-out: Aqueous Intrinsic Solubility): > 648 mg/mL
hygroscopicity (in words) [2]: nonhydroscopic
VTI (% H2 O absorbed) [2]: 0.8 % wt.
DSC degradation temperature ([3]; DSC): ~ 230 °C
DSC water loss (in words) ([3]; DSC): undetected
TGA/DTA degradation temperature [3]: 194 °C
Fusion Microscopy water loss (in words) ([3]; fusion microscopy): Slow water loss
conversion to Form II in slurry ([4]; THF with about 3% to 5% H2 O): the conversion is to Form II
conversion to Form II in slurry ([4]; THF with less than 2% H2 O): no conversion to Form II
Polymorph Isolated ([4]; Acetone/5% H2 O, slurry): Form II
Polymorph Isolated ([4]; Acetonitrile/5% H2 O, slurry): Form I
Polymorph Isolated ([4]; Ethyl Acetate/3.5% H2 O, slurry): Form II
Polymorph Isolated ([4]; H2 O, solutions seeded with Form II): Form II
Polymorph Isolated ([4]; IPO/5% H2 O, slurry): Form I
Polymorph Isolated ([4]; Tetrahydrofuran/5% H2 O, slurry): Form II
SMILES: COc1ccc(C(C)C)cc1CN[C@H]1C2CCN(CC2)[C@H]1C(c1ccccc1)c1ccccc1 [Form I, (2-Benzhydryl-1-azo-bicyclo 2,2,2oct-3-yl)-(5-isoproyl-2-methoxybenzyl)-amine]

From US6262067A, “Polymorphs of a crystalline azo-bicyclo 2,2,2 OCT-3-yl amine dihydrochloride and their pharmaceutical compositions” (priority 2000, dated 2001)
